Experimental findings from US6743917B2, “Camptothecin analogs and methods of preparation thereof” (University of Pittsburgh, priority 1993, dated 2004) are described below.

The test system of data set [1] is DC-3F (hamster lung) cells. The data set is described as follows: Cytotoxicity assay, DC-3F cells (sulforhodamine B protein content). Type of data set: cell-based. To be noted: read-out: Inhibition of cancer cell growth IC50, DC-3F. Here is the method: (§1) Cultures were fixed with trichloroacetic acid and then stained for 30 minutes with 0.4% sulforhodamine B dissolved in 1% acetic acid. Unbound dye was removed by acetic acid washes, and the protein-bound dye was extracted with an unbuffered Tris base [tris(hydroxy-methyl)aminomethan] for determination of absorbance at 570 nm in a 96-well microplate reader. The experiments were carried out in duplicate using five to six concentrations of the drugs tested. Data were analyzed via computer software.

Data set [2] concerns HL-60 (human promyelocytic leukemic) cells. The data set is described as follows: Cytotoxicity assay, HL-60 cells (XTT-microculture tetrazolium assay). Type of data set: cell-based. To be noted: read-out: Inhibition of cancer cell growth IC50, HL-60. The procedure:
The camptothecin derivatives were evaluated for their cytotoxic effects on the growth of HL-60 (human promyelocytic leukemic), 833K (human teratocarcinoma) and DC-3F (hamster lung) cells in vitro. The cells were cultured in an initial density of […]. They were maintained in a 5% CO2 humidified atmosphere at 37° C. in RPMI-1640 media (GIBCO-BRL Grand Island, N.Y.) containing penicillin 100 μ/ml)/streptomycin (100 ^μg/ml) (GIBCO-BRL) and 10% heat inactivated fetal bovine serum. The assay was performed in duplicate in 96-well microplates. The cytotoxicity of the compounds toward HL-60 cells following 72 hr incubation was determined by XTT-microculture tetrazolium assay. Scudiero, D. A., et al., Cancer Res., 48, 4827 (1988), the disclosure of which is incorporated herein by reference. 2′, 3′-bis(-methoxy-4-nitro-5-sulfheny)-5-[(phenylamino)carbonyl]-2H-tetrazolium hydroxide (XTT) was prepared at 1 mg/ml in prewarmed (37° C.) medium without serum. Phenazine methosulfate (PMS) and fresh XTT were mixed together to obtain 0.075 mM PMS-XTT solution (25 ^μl of the stock 5 mM PMS was added per 5 ml of 1 mg/ml XTT). Fifty ^μl of this mixture was added to each well of the cell culture at the end of 72 hr incubation. After incubation at 37° C. for 4 hr., absorbance at 450 nm and 630 nm was measured with a microplate reader (EL340, Bio-Tek Instruments, Inc., Winooski, Vt.).

The nature of data set [3]: Equilibrium binding to DMPG small unilamellar vesicles (fluorescence anisotropy titration). To be noted: PBS buffer at PH 7.4 and 37° C.
Data set [4] can be described thus: Equilibrium binding to DMPC small unilamellar vesicles (fluorescence anisotropy titration). To be noted: PBS buffer at PH 7.4 and 37° C.
Data set [5] relates to 833K (human teratocarcinoma) cells. Put plainly: Cytotoxicity assay, 833K cells (sulforhodamine B protein content). To be noted: read-out: Inhibition of cancer cell growth IC50, 833K. Type of data set: cell-based. Here is the method: as §1
The nature of data set [6]: Kinetics of lactone ring opening in whole human blood (HPLC).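 Also: hydrolytic opening of the camptothecin lactone ring followed over time by quantitative C18 reversed-phase HPLC in human whole blood at physiological temperature.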 To be noted: Whole Blood, physiological temperature.
Data set [7] is described as follows: Kinetics of lactone ring opening in PBS containing HSA (HPLC). To be noted: HSA (PBS containing 30 mg/ml HSA).
Data set [8] is described as follows: Kinetics of lactone ring opening in PBS buffer (HPLC). Type of data set: physicochemical. To be noted: PBS. The procedure: Kinetics of Lactone Ring Opening. […] Mi and Burke (1994), supra.
FIG. 21 summarizes the stability of DB172 in phosphate buffered saline (PBS) buffer, pH 7.4, at physiological temperature. Shown in the figure are plots of lactone fraction as a function of time for DB172 at different concentrations. Drug was added to solution from a concentrated DMSO stock solution such that the volumes of DMSO were very small (less than 0.5%) relative to the volume of water. […] At the more dilute drug concentrations the drug hydrolyzes as previously observed for other camptothecins containing the ^α-hydroxy-^δ-lactone moiety.

[9] abbreviates: Mesocricetus auratus, DC3F, DC-3F cells, sulforhodamine B.
Setting [10] is: Homo sapiens, HL-60 cells, 72 hr incubation, XTT.
[11] abbreviates: Homo sapiens, 833K cells, sulforhodamine B.
[12] abbreviates: HL-60 cells, 72 hr incubation, XTT.

Like-named read-outs stand apart in the source and are kept apart here.

Take `CCC1(O)C(=O)OCc2c1cc1n(c2=O)Cc2c-1nc1ccc(OC(C)=O)cc1c2[Si](C)(C)C` (stereo in doubt) [Example 4, (20S)-10-acetoxy-7-trimethylsilylcamptothecin]: the IC50 in data set [1] (setting [9]) came out at 6.7 nM; in data set [2] (setting [10]) it was 2.7 nM.

For `CCCc1c2c(nc3ccc(O)cc13)-c1cc3c(c(=O)n1C2)COC(=O)C3(O)CC` (centres unmarked) [7-propyl-10-hydroxycamptothecin], the “KDMPG overall association constant” value in data set [3] was determined as 250 M⁻¹. In data set [4], the “KDMPC overall association constant” value was 550 M⁻¹.

With `CC[C@@]1(O)C(=O)OCc2c1cc1n(c2=O)Cc2c-1nc1ccccc1c2[Si](C)(C)CC1CCC2CC1C2(C)C` (stereo partly drawn) [Example 14, (20S)-7-(dimethyl-(1′S,2′S,5′S) 7,7 dimethylnorpinylsilyl)camptothecin], the IC50 came out at 64.1 nM in data set [1] (setting [9]), 66.9 nM in data set [2] (setting [10]) and 197 nM in data set [5] (setting [11]).

`CC[C@@]1(O)C(=O)OCc2c1cc1n(c2=O)Cc2c-1nc1ccccc1c2[Si](C)(C)CCCC#N` [Example 15, (20S)-7-(3-cyanopropyldimethylsilyl)camptothecin]: the figures for the IC50 in data set [1] (setting [9]), in data set [2] (setting [10]) and in data set [5] (setting [11]) were 2.7 nM, 0.91 nM and 2.7 nM, respectively.

On to `CC[C@@]1(O)C(=O)OCc2c1cc1n(c2=O)Cc2c-1nc1ccc(OC(C)=O)cc1c2[Si](C)(C)C(C)(C)C` [Example 17, (20S)10-acetoxy-7-tert-butyldimethylsilylcamptothecin], for which the IC50 worked out at 3.57 nM in data set [1] (setting [9]) and 1.86 nM in data set [2] (setting [10]).

On to `CCC1(O)C(=O)OCc2c1cc1n(c2=O)Cc2c-1nc1ccc(OC(=O)N3CCC(N4CCCCC4)CC3)cc1c2[Si](C)(C)C` (stereo in doubt) [Example 6, (20S) 7-trimethylsilyl-irinotecan], for which the IC50 in data set [1] (Mesocricetus auratus, DC3F) is 256 nM; in data set [2] (Homo sapiens, HL-60, 72 h) it was 66 nM; in data set [5] (Homo sapiens, 833K), 214 nM.

On to `CC[C@@]1(O)C(=O)OCc2c1cc1n(c2=O)Cc2c-1nc1ccccc1c2[Si](C)(C)CCCCl` [Example 16, (20S)-7-(3-halopropyldimethylsilyl) camptothecin], for which the concentration for half-maximal inhibition (IC50) in data set [1] (setting [9]) is 2.3 nM; in data set [2] (setting [10]), 2.1 nM; in data set [5] (setting [11]) it was 5.4 nM.

In the case of `CCC1(O)C(=O)OCc2c1cc1n(c2=O)Cc2c-1nc1ccc(O)cc1c2[Si](C)(C)C` (stereo in doubt) [Example 5, (20S)-10-hydroxy-7-trimethylsilylcamptothecin], the IC50 is 6.9 nM in data set [1] (setting [9]), 2.6 nM in data set [2] (setting [10]) and 7 nM in data set [5] (setting [11]).

For the molecule `CCc1c2c(nc3ccccc13)-c1cc3c(c(=O)n1C2)COC(=O)[C@]3(O)CC` [7-ethyl-20(S)-camptothecin], the “KDMPG overall association constant” value in data set [3] was found to be 300 M⁻¹. Also, the “KDMPC overall association constant” value in data set [4] amounted to 250 M⁻¹.

On to `CCC1(O)C(=O)OCc2c1cc1n(c2=O)Cc2c-1nc1ccccc1c2[Si](c1ccccc1)(c1ccccc1)C(C)(C)C` (stereo in doubt) [Example 3, (20S)-7-tert-butyldiphenylsilylcamptothecin], for which the values for the IC50 in data set [1] (setting [9]), in data set [2] (setting [10]) and in data set [5] (setting [11]) were 663 nM, 339 nM and 243 nM, respectively.

Take `CCC1(O)C(=O)OCc2c1cc1n(c2=O)Cc2c-1nc1cc(F)c(N)cc1c2[Si](C)(C)C` (stereo in doubt) [Example 10, (20S)-11-fluoro-10-amino-7-trimethylsilylcamptothecin]: the IC50 stood at 0.29 nM in data set [1] (setting [9]), 0.07 nM in data set [2] (setting [10]) and 0.14 nM in data set [5] (setting [11]).

Take `CC[C@@]1(O)C(=O)OCc2c1cc1n(c2=O)Cc2c-1nc1ccc(OC(C)=O)cc1c2[Si](C)(C)C(C)(C)C` [Example 18, (20S)10-Acetoxy-7-tert-butyldimethylsilylcamptothecin]: the concentration for half-maximal inhibition (IC50) turned out to be 5.2 nM in data set [1] (DC-3F cells, sulforhodamine B) and 2.6 nM in data set [2] (setting [12]).

As to `CCC1(O)C(=O)OCc2c1cc1n(c2=O)Cc2c-1nc1ccc(OC)cc1c2C` (centres unmarked) [7-methyl-10-methoxycamptothecin], the “KDMPG overall association constant” value in data set [3] stood at 200 M⁻¹. Further, the “KDMPC overall association constant” value in data set [4] is 220 M⁻¹.

In the case of `CCCc1c2c(nc3ccccc13)-c1cc3c(c(=O)n1C2)COC(=O)[C@]3(O)CC` [7-propyl-20(S)-camptothecin], the “KDMPG overall association constant” value in data set [3] came to 600 M⁻¹. For the same molecule, the “KDMPC overall association constant” value in data set [4] is 540 M⁻¹.

In the case of `CC[C@@]1(O)C(=O)OCc2c1cc1n(c2=O)Cc2c-1nc1ccccc1c2C` [7-methyl-20(S)-camptothecin], the “KDMPG overall association constant” value in data set [3] came to 180 M⁻¹. In addition, the “KDMPC overall association constant” value in data set [4] amounted to 150 M⁻¹.

For the molecule `CCC1(O)C(=O)OCc2c1cc1n(c2=O)Cc2c-1nc1ccc(O)cc1c2C` (centres unmarked) [7-methyl-10-hydroxycamptothecin], in data set [3], the “KDMPG overall association constant” value turned out to be 90 M⁻¹. Also, in data set [4], the “KDMPC overall association constant” value is 220 M⁻¹.

`CCC1(O)C(=O)OCc2c1cc1n(c2=O)Cc2c-1nc1cc(N)ccc1c2[Si](C)(C)C` (stereo in doubt) [Example 9, (20S)-11-amino-7-trimethylsilylcamptothecin]: the half-inhibitory concentration (IC50) in data set [1] (setting [9]) came out at 6.4 nM; in data set [2] (setting [10]) it was 2.6 nM; in data set [5] (setting [11]) it was 7.4 nM.

Regarding `CCCCc1c2c(nc3ccc(O)cc13)-c1cc3c(c(=O)n1C2)COC(=O)C3(O)CC` (centres unmarked) [7-butyl-10-hydroxycamptothecin], the “KDMPG overall association constant” value in data set [3] was 1270 M⁻¹. In data set [4], the “KDMPC overall association constant” value was 2100 M⁻¹.

As for `CCCc1c2c(nc3ccc(OC)cc13)-c1cc3c(c(=O)n1C2)COC(=O)C3(O)CC` (centres unmarked) [7-propyl-10-methoxycamptothecin], the “KDMPG overall association constant” value in data set [3] came out at 570 M⁻¹. In data set [4], the “KDMPC overall association constant” value came out at 440 M⁻¹.

In the case of `CC[C@@]1(O)C(=O)OCc2c1cc1n(c2=O)Cc2c-1nc1ccc(O)cc1c2[Si](C)(C)CCCN(C)C.Cl` [DB-124, 10-hydroxy-7-(3-dimethylaminopropyldimethylsilyl) camptothecin hydrochloride salt], the “% Lactone at Equilibrium” value in data set [6] is recorded as 31.8 +/− 0.8%; in data set [7], 12.2 +/− 0.3%; in data set [8], 8.9 +/− 0.3%. Further, the t1/2 in data set [6] came to 63.1 ± 7.4 min; in data set [7], 40.0 ± 0.3 min.

In the case of `CC[C@@]1(O)C(=O)OCc2c1cc1n(c2=O)Cc2c-1nc1ccccc1c2[Si](C(C)C)(C(C)C)C(C)C` [Example 12, 20S-7-triisopropylsilylcamptothecin], the IC50 in data set [1] (setting [9]) was found to be 1040 nM; in data set [2] (setting [10]), 1510 nM; in data set [5] (setting [11]) it was 10700 nM.

Turning to “(20S)-11,12-difluoro-7-trimethylsilylcamptothecin and (20S)-9,10-difluoro-7-trimethylsilylcamptothecin [Example 11]”, the IC50 in data set [1] (DC-3F cells, sulforhodamine B) was 2.5 nM; in data set [2] (setting [12]) it was 1.01 nM; in data set [5] (833K cells, sulforhodamine B) it was 2.1 nM.

On to `CCc1c2c(nc3ccc(OC)cc13)-c1cc3c(c(=O)n1C2)COC(=O)C3(O)CC` (centres unmarked) [7-ethyl-10-methoxycamptothecin], for which the “KDMPG overall association constant” value in data set [3] was determined as 330 M⁻¹. In addition, the “KDMPC overall association constant” value in data set [4] was 340 M⁻¹.

On to `CC[C@@]1(O)C(=O)OCc2c1cc1n(c2=O)Cc2c-1nc1ccccc1c2[Si](CC)(CC)CC` [Example 13, (20S)-7-Triethylsilylcamptothecin], for which the IC50 amounted to 57.1 nM in data set [1] (setting [9]), 31.9 nM in data set [2] (setting [10]) and 122 nM in data set [5] (setting [11]).
